Data taken from ChEMBL document CHEMBL1151580, “Synthesis and antibacterial activity of some C-3-lactonyl substituted cephalosporins” (1993).

Columns and labels:
Staphylococcus aureus [1] = assay: Minimum inhibitory concentration required for antibacterial activity against Staphylococcus aureus Oxford
Escherichia coli [2] = assay: Minimum inhibitory concentration required for antibacterial activity against Escherichia coli JT425; type: functional
Moraxella catarrhalis = assay: Minimum inhibitory concentration required for antibacterial activity against Moraxella catarrhalis Ravasio; type: functional
Staphylococcus aureus [3] = assay: Minimum inhibitory concentration required for antibacterial activity against Staphylococcus aureus MB9; type: functional
[4] = test system: Staphylococcus epidermidis; assay: Minimum inhibitory concentration required for antibacterial activity against Staphylococcus epidermidis PHLN 20; type: functional
Staphylococcus aureus [5] = assay: Minimum inhibitory concentration required for antibacterial activity against Staphylococcus aureus Russell
Haemophilus influenzae [6] = assay: Minimum inhibitory concentration required for antibacterial activity against Haemophilus influenzae Q1; type: functional
Streptococcus pneumoniae [7] = assay: Minimum inhibitory concentration required for antibacterial activity against Streptococcus pneumoniae 1761; type: functional
Haemophilus influenzae [8] = assay: Minimum inhibitory concentration required for antibacterial activity against Haemophilus influenzae NEMC1; type: functional
Morganella morganii = assay: Minimum inhibitory concentration required for antibacterial activity against Morg. morganii T361; type: functional
Escherichia coli [9] = assay: Minimum inhibitory concentration required for antibacterial activity against Escherichia coli ESS; type: functional
Proteus mirabilis = assay: Minimum inhibitory concentration required for antibacterial activity against Pr. mirabilis C977; type: functional
Enterococcus faecalis = assay: Minimum inhibitory concentration required for antibacterial activity against Ent. faecalis I; type: functional
Streptococcus pyogenes = assay: Minimum inhibitory concentration required for antibacterial activity against Streptococcus pyogenes CN 10; type: functional
Streptococcus agalactiae = assay: Minimum inhibitory concentration required for antibacterial activity against Streptococcus agalactiae 2798; type: functional
Escherichia coli [10] = assay: Minimum inhibitory concentration required for antibacterial activity against Escherichia coli 10418; type: functional
Klebsiella pneumoniae = assay: Minimum inhibitory concentration required for antibacterial activity against Klebsiella pneumoniae T767; type: functional
Escherichia coli [11] = assay: Minimum inhibitory concentration required for antibacterial activity against Escherichia coli 1077; type: functional
Streptococcus pneumoniae [12] = assay: Minimum inhibitory concentration required for antibacterial activity against Streptococcus pneumoniae PU 7; type: functional
Pseudomonas aeruginosa = assay: Minimum inhibitory concentration required for antibacterial activity against Pseudomonas aeruginosa 10662; type: functional
Staphylococcus aureus [13] = assay: Minimum inhibitory concentration required for antibacterial activity against Staphylococcus aureus Oxford; type: functional
Staphylococcus aureus [14] = assay: Minimum inhibitory concentration required for antibacterial activity against Staphylococcus aureus Russell; type: functional

MIC (Escherichia coli [2]) [µg/mL]	MIC (Moraxella catarrhalis) [µg/mL]	MIC (Staphylococcus aureus [3]) [µg/mL]	MIC [4] [µg/mL]	MIC (Haemophilus influenzae [6]) [µg/mL]	MIC (Streptococcus pneumoniae [7]) [µg/mL]	MIC (Haemophilus influenzae [8]) [µg/mL]	MIC (Morganella morganii) [µg/mL]	MIC (Escherichia coli [9]) [µg/mL]	MIC (Proteus mirabilis) [µg/mL]	MIC (Enterococcus faecalis) [µg/mL]	MIC (Streptococcus pyogenes) [µg/mL]	MIC (Streptococcus agalactiae) [µg/mL]	MIC (Escherichia coli [10]) [µg/mL]	MIC (Klebsiella pneumoniae) [µg/mL]	MIC (Escherichia coli [11]) [µg/mL]	MIC (Streptococcus pneumoniae [12]) [µg/mL]	MIC (Pseudomonas aeruginosa) [µg/mL]	MIC (Staphylococcus aureus [13]) [µg/mL]	MIC (Staphylococcus aureus [14]) [µg/mL]	SMILES	other results
2	8	4	2	< 0.03	< 0.03	< 0.03	< 0.06	< 0.03	0.06	16	< 0.03	< 0.03	< 0.03	1	1	0.5	32	–	–	CO/N=C(\C(=O)N[C@@H]1C(=O)N2C(C(=O)[O-])=C(/C=C3\C=C(C)C(=O)O3)CS[C@H]12)c1csc(N)n1.[Na+]	MIC (Staphylococcus aureus [1]): 1 µg/mL; MIC (Staphylococcus aureus [5]): 2 µg/mL
4	0.5	4	4	0.06	< 0.03	< 0.03	0.5	< 0.03	0.25	> 64	< 0.03	0.06	0.06	0.5	0.5	4	> 64	1	1	CO/N=C(\C(=O)N[C@@H]1C(=O)N2C(C(=O)[O-])=C(CC3C=CC(=O)O3)CS[C@H]12)c1csc(N)n1.[Na+] (stereo not given in full)	–
1	2	2	0.5	0.06	< 0.03	< 0.03	0.06	< 0.03	< 0.03	> 64	< 0.03	0.06	< 0.03	0.06	0.12	2	64	1	1	CO/N=C(\C(=O)N[C@@H]1C(=O)N2C(C(=O)[O-])=C(C3CCC(=O)O3)CS[C@H]12)c1csc(N)n1.[Na+] (stereo not given in full)	–

SMILES	MIC (Escherichia coli [2]) [µg/mL]	MIC (Moraxella catarrhalis) [µg/mL]	MIC (Staphylococcus aureus [3]) [µg/mL]	MIC [4] [µg/mL]	MIC (Haemophilus influenzae [6]) [µg/mL]	MIC (Streptococcus pneumoniae [7]) [µg/mL]	MIC (Haemophilus influenzae [8]) [µg/mL]	MIC (Morganella morganii) [µg/mL]	MIC (Escherichia coli [9]) [µg/mL]	MIC (Proteus mirabilis) [µg/mL]	MIC (Enterococcus faecalis) [µg/mL]	MIC (Streptococcus pyogenes) [µg/mL]	MIC (Streptococcus agalactiae) [µg/mL]	MIC (Escherichia coli [10]) [µg/mL]	MIC (Klebsiella pneumoniae) [µg/mL]	MIC (Escherichia coli [11]) [µg/mL]	MIC (Streptococcus pneumoniae [12]) [µg/mL]	MIC (Pseudomonas aeruginosa) [µg/mL]	MIC (Staphylococcus aureus [13]) [µg/mL]	MIC (Staphylococcus aureus [14]) [µg/mL]	other results
CO/N=C(\C(=O)N[C@@H]1C(=O)N2C(C(=O)[O-])=C(COC(C)=O)CS[C@H]12)c1csc(N)n1.[Na+] [CEFOTAXIME SODIUM]	0.5	0.25	4	1	< 0.03	< 0.03	< 0.03	2	< 0.03	< 0.03	> 64	< 0.03	0.12	< 0.03	0.06	< 0.03	2	16	2	2	–
